Test results taken from US8173645B2 (Takeda San Diego, Inc., priority 2007, dated 2012).

Target: T1, glucokinase (GK), residues 12-465 of the human enzyme (Homo sapiens, UniProt P35557)
T1 construct: I.D. No. 1 corresponds to residues 12-465 of glucokinase; made in house; host or cells: E. coli DH10b-Tlr
T1 sequence (P35557 with tags, fused parts or gaps isoform P35557-2): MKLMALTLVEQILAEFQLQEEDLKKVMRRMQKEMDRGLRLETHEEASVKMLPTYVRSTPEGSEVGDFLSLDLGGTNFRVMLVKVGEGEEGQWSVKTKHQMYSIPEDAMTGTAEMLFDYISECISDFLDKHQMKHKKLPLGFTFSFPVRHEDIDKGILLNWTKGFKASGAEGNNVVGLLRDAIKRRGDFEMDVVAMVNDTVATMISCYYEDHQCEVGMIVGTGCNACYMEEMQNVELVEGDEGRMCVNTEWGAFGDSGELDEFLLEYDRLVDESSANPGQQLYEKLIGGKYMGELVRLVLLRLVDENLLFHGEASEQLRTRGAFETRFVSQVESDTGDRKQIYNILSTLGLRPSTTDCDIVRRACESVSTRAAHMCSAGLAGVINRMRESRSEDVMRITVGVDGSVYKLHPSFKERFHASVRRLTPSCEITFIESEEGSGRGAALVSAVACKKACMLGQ
Assay: Enzymatic glucokinase activity assay (KinaseGlo luminescence, ATP consumption)
Assay type: biochemical
Conditions: 5 μM ATP, 5 mM Glucose; for EC50: GK activation, Kact = concentration giving 50% of the maximal increase in GK activity, read-out: pKact; for Emax: read-out: % ACTmax
In short: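 Activation measured as ATP consumption: residual ATP detected by KinaseGlo luminescence after 60 min at room temperature with 5 μM ATP and 5 mM glucose (Hepes pH 7.2, MgCl2, Brij35, DTT, 2% DMSO). Enzyme was recombinant FLAG-tagged protein from E. coli. Eleven-point twofold series were fitted nonlinearly for pKact and % ACTmax.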

[1] = calculated maximal gain in GK enzyme activity at a saturating concentration of the compound

Compound | EC50 | Emax [1] | % ACTmax [1]
O=C(Nc1nccs1)[C@H](CC1CCCCC1)N1CCN(S(=O)(=O)c2ccc(F)c(F)c2F)CC1=O [Example 183, (S)-3-cyclohexyl-2-(2-oxo-4-(2,3,4-trifluorophenylsulfonyl)piperazin-1-yl)-N-(thiazol-2-yl)propanamide] | 794 to 1260 nM | ≥ 119% | –
O=C(Nc1nccs1)[C@H](CC1CCCCC1)N1CCN(S(=O)(=O)c2ccc(Oc3ccccc3)nc2)CC1=O [Example 209, (S)-3-cyclohexyl-2-(2-oxo-4-(6-phenoxypyridin-3-ylsulfonyl)piperazin-1-yl)-N-(thiazol-2-yl)propanamide] | 1580 to 2510 nM | ≤ 74% | –
O=C(Nc1nccs1)[C@H](CC1CCCCC1)N1CCN(S(=O)(=O)c2ccc(Br)s2)CC1=O [Example 203, (S)-2-(4-(5-bromothiophen-2-ylsulfonyl)-2-oxopiperazin-1-yl)-3-cyclohexyl-N-(thiazol-2-yl)propanamide] | ≤ 631 nM | 108 to 119% | –
O=C(Nc1nccs1)[C@H](CC1CCCCC1)N1CCN(S(=O)(=O)Cc2cccc(Cl)c2)CC1=O [Example 63, (S)-2-(4-(3-chlorobenzylsulfonyl)-2-oxopiperazin-1-yl)-3-cyclohexyl-N-(thiazol-2-yl)propanamide] | 1580 to 2510 nM | 108 to 119% | –
O=C(Nc1nccs1)[C@H](CC1CCCCC1)N1CCN(C(=O)NCc2ccc(Cl)cc2)CC1=O [Example 138, (S)-N-(4-chlorobenzyl)-4-(3-cyclohexyl-1-oxo-1-(thiazol-2-ylamino)propan-2-yl)-3-oxopiperazine-1-carboxamide] | ≥ 3160 nM | ≤ 74% | –
O=C(Nc1ncc(Cl)s1)[C@@H](CC1CCOCC1)N1CCN(S(=O)(=O)C2CC2)CC1=O [Example 25, (R)-N-(5-chlorothiazol-2-yl)-2-(4-(cyclopropylsulfonyl)-2-oxopiperazin-1-yl)-3-(tetrahydro-2H-pyran-4-yl)propanamide] | ≥ 3160 nM | ≤ 74% | –
Cc1ccc(S(=O)(=O)N2CCN([C@@H](CC3CCCCC3)C(=O)Nc3nccs3)C(=O)C2)cc1Cl [Example 94, (S)-2-(4-(3-chloro-4-methylphenylsulfonyl)-2-oxopiperazin-1-yl)-3-cyclohexyl-N-(thiazol-2-yl)propanamide] | 794 to 1260 nM | 108 to 119% | –
O=C(Nc1nccs1)[C@H](CC1CCCCC1)N1CCN(C(=S)Nc2ccc(Oc3ccccc3)cc2)CC1=O [Example 127, (S)-3-cyclohexyl-2-(2-oxo-4-(4-phenoxyphenylcarbamothioyl)piperazin-1-yl)-N-(thiazol-2-yl)propanamide] | 1580 to 2510 nM | ≤ 74% | –
O=C(Nc1nccs1)[C@H](CC1CCCCC1)N1CCN(C(=O)Nc2ccc3ccccc3c2)CC1=O [Example 139, (S)-4-(3-cyclohexyl-1-oxo-1-(thiazol-2-ylamino)propan-2-yl)-N-(naphthalen-2-yl)-3-oxopiperazine-1-carboxamide] | ≥ 3160 nM | 74.1 to 97% | –
N#Cc1ccc(S(=O)(=O)N2CCN([C@@H](CC3CCCCC3)C(=O)Nc3nccs3)C(=O)C2)c(Cl)c1 [Example 52, (S)-2-(4-(2-chloro-4-cyanophenylsulfonyl)-2-oxopiperazin-1-yl)-3-cyclohexyl-N-(thiazol-2-yl)propanamide] | 1580 to 2510 nM | 74.1 to 97% | –
O=C(Nc1nccs1)[C@H](CC1CCCCC1)N1CCN(S(=O)(=O)c2ccc(F)c(F)c2)CC1=O [Example 103, (S)-3-cyclohexyl-2-(4-(3,4-difluorophenylsulfonyl)-2-oxopiperazin-1-yl)-N-(thiazol-2-yl)propanamide] | ≤ 631 nM | 108 to 119% | –
O=C(O)c1ccc(S(=O)(=O)N2CCN([C@@H](CC3CCCCC3)C(=O)Nc3nccs3)C(=O)C2)cc1 [Example 91, (S)-4-(4-(3-cyclohexyl-1-oxo-1-(thiazol-2-ylamino)propan-2-yl)-3-oxopiperazin-1-ylsulfonyl)benzoic acid] | ≥ 3160 nM | ≤ 74% | –
O=C(Nc1nccs1)[C@H](CC1CCCCC1)N1CCN(S(=O)(=O)c2ccc(OC(F)F)cc2)CC1=O [Example 70, (S)-3-cyclohexyl-2-(4-(4-(difluoromethoxy)phenylsulfonyl)-2-oxopiperazin-1-yl)-N-(thiazol-2-yl)propanamide] | 1580 to 2510 nM | 74.1 to 97% | –
O=C(Nc1ncc(Cl)s1)C(CC1CCOCC1)N1CCN(S(=O)(=O)c2ccc(F)cc2)CC1=O (stereo not drawn) [Example 33, N-(5-chlorothiazol-2-yl)-2-(4-(4-fluorophenylsulfonyl)-2-oxopiperazin-1-yl)-3-(tetrahydro-2H-pyran-4-yl)propanamide] | 794 to 1260 nM | ≥ 119% | –
O=C(Nc1nccs1)[C@H](CC1CCCCC1)N1CCN(S(=O)(=O)c2ccc3c(c2)OCCO3)CC1=O [Example 53, (S)-3-cyclohexyl-2-(4-(2,3-dihydrobenzo[b][1,4]dioxin-6-ylsulfonyl)-2-oxopiperazin-1-yl)-N-(thiazol-2-yl)propanamide] | 794 to 1260 nM | 74.1 to 97% | –
Cc1ccc(S(=O)(=O)N2CCN([C@@H](CC3CCCCC3)C(=O)Nc3nccs3)C(=O)C2)cc1F [Example 189, (S)-3-cyclohexyl-2-(4-(3-fluoro-4-methylphenylsulfonyl)-2-oxopiperazin-1-yl)-N-(thiazol-2-yl)propanamide] | ≤ 631 nM | 108 to 119% | –
COc1ccc(Oc2cccc(S(=O)(=O)N3CCN([C@@H](CC4CCCCC4)C(=O)Nc4nccs4)C(=O)C3)c2)cc1 [Example 228, (S)-3-cyclohexyl-2-(4-(3-(4-methoxyphenoxy)phenylsulfonyl)-2-oxopiperazin-1-yl)-N-(thiazol-2-yl)propanamide] | 794 to 1260 nM | ≤ 74% | –
CCc1ccc(S(=O)(=O)N2CCN([C@@H](CC3CCCCC3)C(=O)Nc3nccs3)C(=O)C2)cc1 [Example 225, (S)-3-cyclohexyl-2-(4-(4-ethylphenylsulfonyl)-2-oxopiperazin-1-yl)-N-(thiazol-2-yl)propanamide] | 794 to 1260 nM | 97.1 to 107% | –
O=C(Nc1nccs1)[C@H](CC1CCCCC1)N1CCN(S(=O)(=O)C2CC2)CC1=O [Example 2, (S)-3-cyclohexyl-2-(4-(cyclopropylsulfonyl)-2-oxopiperazin-1-yl)-N-(thiazol-2-yl)propanamide] | ≤ 631 nM | – | 107.5-119.0%
O=C(Nc1nccs1)[C@H](CC1CCCCC1)N1CCN(S(=O)(=O)c2ccc(F)cc2F)CC1=O [Example 58, (S)-3-cyclohexyl-2-(4-(2,4-difluorophenylsulfonyl)-2-oxopiperazin-1-yl)-N-(thiazol-2-yl)propanamide] | 794 to 1260 nM | 108 to 119% | –
O=C(Nc1nccs1)[C@H](CC1CCCCC1)N1CCN(C(=O)Nc2cccc3ccccc23)CC1=O [Example 77, (S)-4-(3-cyclohexyl-1-oxo-1-(thiazol-2-ylamino)propan-2-yl)-N-(naphthalen-1-yl)-3-oxopiperazine-1-carboxamide] | ≥ 3160 nM | 74.1 to 97% | –
O=C(Nc1nccs1)[C@H](CC1CCCCC1)N1CCN(S(=O)(=O)c2cc(Cl)ccc2F)CC1=O [Example 185, (S)-2-(4-(5-chloro-2-fluorophenylsulfonyl)-2-oxopiperazin-1-yl)-3-cyclohexyl-N-(thiazol-2-yl)propanamide] | ≤ 631 nM | ≥ 119% | –
O=C(O)c1cccc(S(=O)(=O)N2CCN([C@@H](CC3CCCCC3)C(=O)Nc3nccs3)C(=O)C2)c1 [Example 49, (S)-3-(4-(3-cyclohexyl-1-oxo-1-(thiazol-2-ylamino)propan-2-yl)-3-oxopiperazin-1-ylsulfonyl)benzoic acid] | ≥ 3160 nM | 74.1 to 97% | –
O=C(Nc1nccs1)[C@H](CC1CCCCC1)N1CCN(S(=O)(=O)c2ccccc2F)CC1=O [Example 205, (S)-3-cyclohexyl-2-(4-(2-fluorophenylsulfonyl)-2-oxopiperazin-1-yl)-N-(thiazol-2-yl)propanamide] | ≤ 631 nM | ≥ 119% | –
O=C(Nc1nccs1)[C@H](CC1CCCCC1)N1CCN(S(=O)(=O)c2cc3ccccc3s2)CC1=O [Example 104, (S)-2-(4-(benzo[b]thiophen-2-ylsulfonyl)-2-oxopiperazin-1-yl)-3-cyclohexyl-N-(thiazol-2-yl)propanamide] | ≤ 631 nM | 74.1 to 97% | –
COc1ccc(NC(=S)N2CCN([C@@H](CC3CCCCC3)C(=O)Nc3nccs3)C(=O)C2)cc1 [Example 86, (S)-3-cyclohexyl-2-(4-(4-methoxyphenylcarbamothioyl)-2-oxopiperazin-1-yl)-N-(thiazol-2-yl)propanamide] | ≥ 3160 nM | 97.1 to 107% | –
Cc1nc(C)c(S(=O)(=O)N2CCN([C@@H](CC3CCCCC3)C(=O)Nc3nccs3)C(=O)C2)s1 [Example 54, (S)-3-cyclohexyl-2-(4-(2,4-dimethylthiazol-5-ylsulfonyl)-2-oxopiperazin-1-yl)-N-(thiazol-2-yl)propanamide] | ≥ 3160 nM | ≥ 119% | –
